According to ChEMBL document CHEMBL1201862, “PubChem BioAssay data set” (2004):
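Cultured in 96-well plates, cells were exposed to test compound for 48 hours across five concentrations. At the GI50, growth is halved.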 Active and inactive are the calls of the source. Cut-off read from the data, not from the text of the source: active = GI50 up to about 1.1 µM and inactive = higher.

How the values were obtained:
Test in all cases: NCI tumour cell line growth inhibition, 48 h
SW-620 = system: SW-620
EKVX = system: EKVX
SN12C = system: SN12C
SR = system: SR
HOP-62 = system: HOP-62
KM12 = system: KM12
A549 = system: A549
MOLT-4 = system: MOLT-4
MCF7 = system: MCF7
UACC-257 = system: UACC-257
MDA-N = system: MDA-N
HCC 2998 = system: HCC 2998
HL-60 = system: HL-60
HCT-116 = system: HCT-116
CCRF-CEM = system: CCRF-CEM
HOP-92 = system: HOP-92
NCI-H522 = system: NCI-H522
A498 = system: A498
RPMI-8226 = system: RPMI-8226
TK-10 = system: TK-10

Measured: GI50

CC(=O)C(=C(I)I)c1ccccc1
inactive: SW-620 18.3 µM | EKVX 25.7 µM | SN12C 13.3 µM | SR 13.1 µM | HOP-62 20.9 µM | KM12 20.9 µM | A549 24.6 µM | MOLT-4 13.4 µM | MCF7 27.6 µM | UACC-257 16.7 µM | MDA-N 15.2 µM | HCC 2998 24.5 µM | HL-60 24.7 µM | HCT-116 15.4 µM | CCRF-CEM 11.5 µM | HOP-92 37.2 µM | NCI-H522 12.7 µM | A498 22 µM

COC(=O)c1ccccc1CC1Cc2ccc3c(c2C1=O)CCC3 (configuration not stated)
inactive: SW-620 99.1 µM | EKVX 25.6 µM | SN12C > 100 µM | RPMI-8226 30.9 µM | SR 31 µM | HOP-62 > 100 µM | KM12 64.9 µM | A549 > 100 µM | MOLT-4 25.1 µM | TK-10 > 100 µM | MCF7 20.7 µM | UACC-257 32.4 µM | MDA-N 33.5 µM | HCC 2998 28.2 µM | HL-60 16.6 µM | HCT-116 37.1 µM | CCRF-CEM 55.8 µM | HOP-92 22.4 µM | NCI-H522 22.1 µM

COC(=O)c1c(O)ccc2c1c1c(n2Cc2cc(OC)cc(OC)c2)C(=O)c2ccccc2C1
inactive: SW-620 51.8 µM | SN12C 29.5 µM | RPMI-8226 7.82 µM | SR 13 µM | HOP-62 > 100 µM | KM12 43.3 µM | A549 36.2 µM | MOLT-4 58.1 µM | TK-10 52 µM | MCF7 23.7 µM | UACC-257 67 µM | MDA-N 10.8 µM | HL-60 > 100 µM | HCT-116 8.28 µM | CCRF-CEM 18.2 µM | A498 92.3 µM

SCCSCCCSCCS
inactive: SW-620 > 100 µM | EKVX > 100 µM | SN12C > 100 µM | SR 4.16 µM | HOP-62 > 100 µM | KM12 > 100 µM | A549 > 100 µM | MOLT-4 4.97 µM | MCF7 70.8 µM | UACC-257 59.3 µM | MDA-N > 100 µM | HCC 2998 > 100 µM | HL-60 9.31 µM | HCT-116 > 100 µM | CCRF-CEM 10.5 µM | NCI-H522 19.3 µM

N#CCc1nc(Cc2ccccc2)n[nH]1
inactive: SW-620 > 100 µM | EKVX > 100 µM | SN12C > 100 µM | SR > 100 µM | HOP-62 > 100 µM | KM12 > 100 µM | A549 > 100 µM | MOLT-4 > 100 µM | TK-10 > 100 µM | MCF7 > 100 µM | UACC-257 > 100 µM | MDA-N > 100 µM | HCC 2998 > 100 µM | HL-60 > 100 µM | HCT-116 > 100 µM | CCRF-CEM > 100 µM | HOP-92 > 100 µM | NCI-H522 > 100 µM | A498 > 100 µM

C=C(O)c1ccccc1C#Cc1ccccc1C(=O)OC
inactive: SW-620 > 10 µM | EKVX > 10 µM | SN12C > 10 µM | RPMI-8226 > 10 µM | SR > 10 µM | HOP-62 > 10 µM | KM12 > 10 µM | A549 > 10 µM | MOLT-4 > 10 µM | TK-10 > 10 µM | MCF7 > 10 µM | UACC-257 > 10 µM | MDA-N > 10 µM | HCC 2998 > 10 µM | HL-60 > 10 µM | HCT-116 > 10 µM | CCRF-CEM > 10 µM | NCI-H522 > 10 µM | A498 > 10 µM

COc1cc(C2S/C(=C/c3ccccc3)C(=O)N2c2cccc([N+](=O)[O-])c2)cc(OC)c1OC (configuration not stated)
inactive: EKVX 50 µM | SN12C > 100 µM | SR 46.6 µM | HOP-62 > 100 µM | KM12 28.8 µM | A549 > 100 µM | MOLT-4 70.3 µM | TK-10 > 100 µM | MCF7 47.8 µM | UACC-257 > 100 µM | MDA-N 22.9 µM | HCC 2998 > 100 µM | HCT-116 36.2 µM | HOP-92 62.1 µM | NCI-H522 38.5 µM | A498 > 100 µM

COC(=O)C(Cc1ccc(OC)cc1O)NC(=O)OC(C)(C)C (configuration not stated)
inactive: SW-620 > 100 µM | EKVX > 100 µM | SN12C > 100 µM | SR > 100 µM | HOP-62 > 100 µM | KM12 > 100 µM | A549 > 100 µM | MOLT-4 > 100 µM | TK-10 > 100 µM | MCF7 > 100 µM | UACC-257 22.1 µM | MDA-N > 100 µM | HCC 2998 > 100 µM | HL-60 > 100 µM | HCT-116 > 100 µM | CCRF-CEM > 100 µM | NCI-H522 96.6 µM

O=C1CC2C(=O)C1C(C(=O)O)C2C(=O)O (configuration not stated)
inactive: SW-620 > 100 µM | EKVX > 100 µM | SN12C > 100 µM | RPMI-8226 > 100 µM | SR > 100 µM | HOP-62 > 100 µM | KM12 > 100 µM | A549 > 100 µM | MOLT-4 > 100 µM | TK-10 > 100 µM | MCF7 > 100 µM | UACC-257 > 100 µM | MDA-N > 100 µM | HL-60 > 100 µM | HCT-116 > 100 µM | CCRF-CEM > 100 µM | HOP-92 > 100 µM | NCI-H522 > 100 µM | A498 > 100 µM

CC(C)c1c(O)ccc2c1CCC1C(C)(C)CCCC21C (configuration not stated)
inactive: SW-620 20 µM | EKVX 17.3 µM | SN12C 14.5 µM | RPMI-8226 22.9 µM | SR 19.5 µM | KM12 20.5 µM | A549 17 µM | MOLT-4 19.1 µM | TK-10 20.7 µM | MCF7 19.1 µM | UACC-257 17.7 µM | MDA-N 17.1 µM | HCC 2998 22 µM | HL-60 29 µM | HCT-116 17.2 µM | CCRF-CEM 24.4 µM | HOP-92 18.6 µM | NCI-H522 16.9 µM

C[N+](C)(N)Cc1csc(-c2ccc(Cl)cc2)n1
inactive: SW-620 > 100 µM | EKVX 64.3 µM | SN12C 34.8 µM | RPMI-8226 > 100 µM | SR > 100 µM | HOP-62 75.7 µM | KM12 > 100 µM | A549 71.8 µM | TK-10 > 100 µM | MCF7 > 100 µM | UACC-257 > 100 µM | MDA-N > 100 µM | HCC 2998 > 100 µM | HCT-116 > 100 µM | HOP-92 > 100 µM | NCI-H522 62.4 µM | A498 88.5 µM

CC(=O)Oc1ccn2nc(C)c(Cc3c(C)nn4ccc(OC(C)=O)cc34)c2c1
inactive: SW-620 > 100 µM | EKVX > 100 µM | SN12C > 100 µM | SR > 100 µM | HOP-62 48 µM | KM12 > 100 µM | A549 > 100 µM | MOLT-4 49.8 µM | TK-10 > 100 µM | MCF7 > 10 µM | UACC-257 47.1 µM | MDA-N > 10 µM | HL-60 39.1 µM | HCT-116 > 100 µM | CCRF-CEM 27.9 µM | HOP-92 > 100 µM | NCI-H522 33.2 µM

COC(=O)C1=C(O)C(C(=O)OC)[C@@]2(O)[C@@H](C(=O)OC)C(c3ccc(OC(=O)/C(=C/c4ccccc4)c4ccccc4)cc3)C[C@@H]1[C@@H]2C(=O)OC (some centres not stated)
inactive: SW-620 8.09 µM | EKVX 64.6 µM | SN12C 30.8 µM | SR 6.73 µM | HOP-62 > 100 µM | KM12 27.9 µM | A549 69.2 µM | MOLT-4 3.72 µM | TK-10 13.2 µM | MCF7 10.5 µM | UACC-257 18.9 µM | MDA-N 6.35 µM | HL-60 17.4 µM | HCT-116 5 µM | CCRF-CEM 4.9 µM | HOP-92 14.4 µM | NCI-H522 13.3 µM | A498 40.8 µM

COc1ccc2c3c([nH]c2c1)[C@H]1C[C@H]2[C@H](C[C@@H](O)[C@H](OC)[C@H]2C(=O)O)CN1CC3
inactive: SW-620 > 100 µM | EKVX > 100 µM | SN12C > 100 µM | RPMI-8226 > 100 µM | SR > 100 µM | HOP-62 > 100 µM | KM12 > 100 µM | A549 > 100 µM | MOLT-4 > 100 µM | TK-10 > 100 µM | MCF7 > 100 µM | UACC-257 > 100 µM | MDA-N > 100 µM | HCC 2998 > 100 µM | HCT-116 > 100 µM | CCRF-CEM > 100 µM | HOP-92 > 100 µM | NCI-H522 > 100 µM | A498 > 100 µM

O=C1c2ccccc2S(=O)(=O)c2ccccc21
inactive: SW-620 > 100 µM | EKVX 61.1 µM | SN12C > 100 µM | RPMI-8226 > 100 µM | HOP-62 > 100 µM | KM12 > 100 µM | A549 > 100 µM | MOLT-4 > 100 µM | TK-10 > 100 µM | MCF7 > 100 µM | UACC-257 > 100 µM | MDA-N > 100 µM | HCC 2998 > 100 µM | HL-60 > 100 µM | HCT-116 > 100 µM | CCRF-CEM > 100 µM | HOP-92 > 100 µM | NCI-H522 > 100 µM | A498 > 100 µM
